Reference: PubChem BioAssay (NCI)
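Protocol summary: plate cells (96-well), add compound at 5 concentrations, incubate 48 h, interpolate endpoints linearly. Here, GI50 denotes the concentration required for 50% inhibition of growth. The concentration for full growth arrest is given as TGI.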

Assays:
Experiment in all cases: growth of human tumour cells (NCI), 48 h
ACHN renal = system: ACHN renal
CAKI-1 renal = system: CAKI-1 renal
DU-145 prostate = system: DU-145 prostate
HCT-15 colon = system: HCT-15 colon
NCI/ADR-RES ovarian = system: NCI/ADR-RES ovarian
SK-MEL-28 melanoma = system: SK-MEL-28 melanoma
SN12C renal = system: SN12C renal
U251 CNS = system: U251 CNS
UACC-257 melanoma = system: UACC-257 melanoma
SNB-75 CNS = system: SNB-75 CNS

## Oc1ccc(C(=C(Br)c2ccccc2)c2ccc(O)cc2)cc1
ACHN renal
  TGI: 21.7 µM
CAKI-1 renal
  TGI: 30.8 µM
DU-145 prostate
  TGI: 25.7 µM
HCT-15 colon
  TGI: 14.3 µM
NCI/ADR-RES ovarian
  TGI: 12.6 µM
SK-MEL-28 melanoma
  TGI: 24 µM
SN12C renal
  TGI: 18.9 µM
U251 CNS
  TGI: 15.3 µM
UACC-257 melanoma
  TGI: 25.2 µM

## O=C1c2cc3c(cc2-c2c1c1ccc(Cl)cc1c(=O)n2C[C@H](O)CO)OCO3
ACHN renal
  GI50: 0.0199 µM
  TGI: 0.111 µM
CAKI-1 renal
  GI50: < 0.01 µM
  TGI: 0.192 µM
DU-145 prostate
  GI50: 0.0323 µM
  TGI: 1.08 µM
HCT-15 colon
  GI50: 0.11 µM
  TGI: 1.28 µM
NCI/ADR-RES ovarian
  GI50: 0.0322 µM
  TGI: 1.12 µM
SK-MEL-28 melanoma
  GI50: 0.2 µM
  TGI: 1.28 µM
SNB-75 CNS
  GI50: 0.0245 µM
  TGI: 1.1 µM
U251 CNS
  GI50: 0.0198 µM
  TGI: 1.28 µM
UACC-257 melanoma
  GI50: 0.13 µM
  TGI: 0.604 µM

## COC(=O)c1cc2c(cc1Cl)Sc1nnc(Nc3ccccc3)n1S2(=O)=O
ACHN renal
  TGI: 4.16 µM
CAKI-1 renal
  TGI: 7.23 µM
DU-145 prostate
  TGI: 3.87 µM
HCT-15 colon
  TGI: 6.05 µM
NCI/ADR-RES ovarian
  TGI: 27.4 µM
SK-MEL-28 melanoma
  TGI: 10.5 µM
SN12C renal
  TGI: 21.8 µM
SNB-75 CNS
  TGI: 17.1 µM
U251 CNS
  TGI: 11.6 µM
UACC-257 melanoma
  TGI: 21.7 µM

## C=C(C#N)C(=O)OCC(CC)CC.C=C(C#N)C(=O)OCC(CC)CC.CS(C)=O.CS(C)=O.Nc1c(N=Nc2ccc(-c3ccc(N=Nc4cc(S(=O)(=O)[O-])c5ccccc5c4N)cc3)cc2)cc(S(=O)(=O)[O-])c2ccccc12.[Pt+2]
CAKI-1 renal
  GI50: 20.4 µM
  TGI: 53.7 µM
HCT-15 colon
  GI50: 33.2 µM
  TGI: > 69.3 µM
NCI/ADR-RES ovarian
  GI50: 34 µM
  TGI: 91.7 µM
SK-MEL-28 melanoma
  GI50: 21.7 µM
  TGI: 43 µM
SN12C renal
  GI50: 57.7 µM
  TGI: > 100 µM
SNB-75 CNS
  GI50: 65.4 µM
  TGI: > 100 µM
U251 CNS
  GI50: 46.7 µM
  TGI: > 100 µM
UACC-257 melanoma
  GI50: 17.4 µM
  TGI: 31.8 µM

## O=C1c2cc(O)c(O)cc2O[C@H](c2ccc(O)c(O)c2)[C@H]1O
ACHN renal
  TGI: > 100 µM
CAKI-1 renal
  TGI: > 100 µM
DU-145 prostate
  TGI: > 100 µM
HCT-15 colon
  TGI: > 100 µM
NCI/ADR-RES ovarian
  TGI: > 100 µM
SK-MEL-28 melanoma
  TGI: > 100 µM
SN12C renal
  TGI: > 100 µM
SNB-75 CNS
  TGI: > 100 µM
U251 CNS
  TGI: > 100 µM
UACC-257 melanoma
  TGI: > 100 µM

## Cc1ccc(S(=O)(=O)N(CC(O)COc2ccccc2)c2c(F)cccc2F)cc1 (stereo not drawn)
ACHN renal
  TGI: 40.1 µM
CAKI-1 renal
  TGI: 33.8 µM
DU-145 prostate
  TGI: > 100 µM
HCT-15 colon
  TGI: 37 µM
NCI/ADR-RES ovarian
  TGI: 43.1 µM
SK-MEL-28 melanoma
  TGI: 31 µM
SN12C renal
  TGI: 47.8 µM
SNB-75 CNS
  TGI: 49 µM
U251 CNS
  TGI: 29.1 µM
UACC-257 melanoma
  TGI: 44.5 µM

## CCN(CC)CCNc1ccc2ncn3c4ccc(O)cc4c(=O)c1c23
ACHN renal
  TGI: 2.89 µM
CAKI-1 renal
  TGI: 2.08 µM
DU-145 prostate
  TGI: 18.4 µM
HCT-15 colon
  TGI: 13 µM
NCI/ADR-RES ovarian
  TGI: 16.1 µM
SK-MEL-28 melanoma
  TGI: 21.8 µM
SN12C renal
  TGI: 15.1 µM
SNB-75 CNS
  TGI: 11.6 µM
U251 CNS
  TGI: 2.75 µM
UACC-257 melanoma
  TGI: 21.2 µM

## COc1ccc2nc3c(c(N)c2c1)C1CCC3C1(C)C (stereo not drawn)
ACHN renal
  TGI: > 100 µM
CAKI-1 renal
  TGI: > 100 µM
DU-145 prostate
  TGI: > 100 µM
HCT-15 colon
  TGI: > 100 µM
NCI/ADR-RES ovarian
  TGI: > 100 µM
SK-MEL-28 melanoma
  TGI: > 100 µM
SN12C renal
  TGI: > 100 µM
SNB-75 CNS
  TGI: > 100 µM
U251 CNS
  TGI: > 100 µM
UACC-257 melanoma
  TGI: 40.5 µM

## CSCCC(C(=O)O)N(C)C (stereo not drawn)
ACHN renal
  TGI: > 100 µM
CAKI-1 renal
  TGI: > 100 µM
DU-145 prostate
  TGI: > 100 µM
HCT-15 colon
  TGI: > 100 µM
NCI/ADR-RES ovarian
  TGI: > 100 µM
SK-MEL-28 melanoma
  TGI: > 100 µM
SN12C renal
  TGI: > 100 µM
SNB-75 CNS
  TGI: > 100 µM
U251 CNS
  TGI: > 100 µM
UACC-257 melanoma
  TGI: > 100 µM

## O=c1[nH]c2[nH]c(=S)[nH]c(=S)c2[nH]1
ACHN renal
  TGI: > 100 µM
CAKI-1 renal
  TGI: > 100 µM
HCT-15 colon
  TGI: > 100 µM
NCI/ADR-RES ovarian
  TGI: > 100 µM
SK-MEL-28 melanoma
  TGI: > 100 µM
SN12C renal
  TGI: > 100 µM
U251 CNS
  TGI: > 100 µM
UACC-257 melanoma
  TGI: > 100 µM

## CN1C(=O)CC(=O)N1/C(=C/c1ccccc1)c1ccccc1
ACHN renal
  TGI: > 100 µM
CAKI-1 renal
  TGI: 62.5 µM
DU-145 prostate
  TGI: > 100 µM
NCI/ADR-RES ovarian
  TGI: > 100 µM
SK-MEL-28 melanoma
  TGI: > 100 µM
SN12C renal
  TGI: > 100 µM
SNB-75 CNS
  TGI: > 100 µM
U251 CNS
  TGI: > 100 µM
UACC-257 melanoma
  TGI: > 100 µM

## O=C(CSCC(=O)N/N=C/c1cccc(O)c1)N/N=C/c1cccc(O)c1
ACHN renal
  TGI: > 100 µM
CAKI-1 renal
  TGI: > 100 µM
DU-145 prostate
  TGI: > 100 µM
HCT-15 colon
  TGI: > 100 µM
NCI/ADR-RES ovarian
  TGI: > 100 µM
SK-MEL-28 melanoma
  TGI: > 100 µM
SN12C renal
  TGI: > 100 µM
SNB-75 CNS
  TGI: > 100 µM
U251 CNS
  TGI: > 100 µM
UACC-257 melanoma
  TGI: > 100 µM

## Cc1ccc(S(=O)(=O)OC2CC(C(C)(C)C)CCC2c2ccccc2)cc1 (stereo not drawn)
ACHN renal
  TGI: > 100 µM
CAKI-1 renal
  TGI: > 100 µM
DU-145 prostate
  TGI: > 100 µM
HCT-15 colon
  TGI: > 100 µM
NCI/ADR-RES ovarian
  TGI: > 100 µM
SK-MEL-28 melanoma
  TGI: > 100 µM
SN12C renal
  TGI: > 100 µM
SNB-75 CNS
  TGI: 68 µM
U251 CNS
  TGI: > 100 µM
UACC-257 melanoma
  TGI: > 100 µM

## COc1ccc2nc3cc(Cl)ccc3c(NC(C)CCCN(CCCl)CCCl)c2c1 (stereo not drawn)
ACHN renal
  TGI: 3.17 µM
CAKI-1 renal
  TGI: 13.9 µM
HCT-15 colon
  TGI: 6.56 µM
SK-MEL-28 melanoma
  TGI: 18.4 µM
SN12C renal
  TGI: 8.66 µM
SNB-75 CNS
  TGI: 8.98 µM
U251 CNS
  TGI: 5.65 µM
UACC-257 melanoma
  TGI: 14.9 µM

## COc1ccc(OC)c2sc(N3C(=O)/C(=C/c4cccc(Oc5ccccc5)c4)N=C3c3ccccc3)nc12
ACHN renal
  TGI: > 100 µM
CAKI-1 renal
  TGI: > 100 µM
DU-145 prostate
  TGI: > 100 µM
HCT-15 colon
  TGI: > 100 µM
NCI/ADR-RES ovarian
  TGI: > 100 µM
SK-MEL-28 melanoma
  TGI: > 100 µM
SN12C renal
  TGI: > 100 µM
SNB-75 CNS
  TGI: > 100 µM
U251 CNS
  TGI: > 100 µM
UACC-257 melanoma
  TGI: > 100 µM
